What was measured:
RBL-2H3 cells = experiment: IgE-induced Beta-hexosaminidase secretion in RBL-2H3 cells; type: cell-based; conditions: Rattus norvegicus; RBL-2H3 cells sensitized with SPE-7, stimulated with DNP-BSA
Method: For the determination of IgE-induced Beta-hexosaminidase secretion, RBL-2H3 cells (SIBS) are seeded in 96 well plates at 4×10^4 cells per well and incubated in MEM media with 15% FBS and Glutamine ([…]) for 4 hours and sensitized with 0.5 ug/ml of SPE-7 overnight. Cells are washed 3 times with Tyrode's buffer and incubated in the presence or absence of various concentrations of the testing compound for 20 min at 37° C., 5% CO2. Cells are stimulated by adding 10 μL of DNP-BSA solution (150 ng/mL) to each well and incubating for 45 minutes at 37° C., 5% CO2. Then, 45 μL of the supernatant is taken and incubated with 100 μL of 1 mM 4-Nitrophenyl N-acetyl-β-D-glucosaminide (Sigma, Cat. No. N9376), which is diluted in 0.05 M citrate buffer (pH 4.5), for 1.5 hr at 37° C. The reactions are quenched by adding 185 μL of 0.05 M sodium carbonate buffer (pH 10.0). Plates are read at 405 nm on Multiskan (MK 3).

Flt3 kinase = biological target: T1, Flt3 kinase (Homo sapiens, UniProt P36888); experiment: Z-lyte kinase assay of Flt-3; type: biochemical; conditions: Z-LYTE Tyr 2 peptide; final concentrations 3 to 0.0014 μM
T1 construct: purchased Invitrogen PV3182
T1 sequence (P36888 564-993 limits assumed): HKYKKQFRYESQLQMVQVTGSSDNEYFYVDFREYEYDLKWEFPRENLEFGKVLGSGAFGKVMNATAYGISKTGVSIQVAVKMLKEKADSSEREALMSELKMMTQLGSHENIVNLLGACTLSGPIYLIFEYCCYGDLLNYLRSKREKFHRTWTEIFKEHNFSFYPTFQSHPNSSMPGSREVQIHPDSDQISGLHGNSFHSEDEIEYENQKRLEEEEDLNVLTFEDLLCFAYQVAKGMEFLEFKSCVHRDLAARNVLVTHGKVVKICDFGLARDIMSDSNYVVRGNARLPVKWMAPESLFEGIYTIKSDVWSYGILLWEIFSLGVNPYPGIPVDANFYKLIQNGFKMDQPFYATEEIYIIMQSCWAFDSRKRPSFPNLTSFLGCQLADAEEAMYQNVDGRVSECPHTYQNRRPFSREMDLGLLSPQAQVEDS
Method: Z-lyte kinase assay of Flt-3:
Dilute 5× Kinase Buffer to 1,33× with ddH2O
Serially dilute the test compounds to 4 folds of the concentrations desired, keeping the DMSO concentration at 8%. The final concentrations were 3, 1, 0.33, 0.11, 0.037, 0.012, 0.004, 0.0014 μM, and the final concentration of DMSO was 2%,
Prepare Kinase/Peptide Mixture by diluting the kinase to 0.12 μg/mL and the Z-LYTE™ Tyr 2 peptide to 4 μM in 1.33× Kinase Buffer. Mix gently by pipetting. 4) Phcspho-peptide Solution (PP solution)
Add 0.4 μL of Z-LYTE™ Tyr 2 Phospho-peptide to 99.6 μL of 1.33× Kinase Buffer.
Prepare ATP Solution by diluting the 10 mM of ATP in 1.33× Kinase Buffer to 1.88 mM.
Dilute Development Reagent A with Development Buffer as 1:64.
1) Kinase reaction (10 μL of Volume) • a. Add 2.5 μL of 4× test Cpds to each well except C1, C2, C3 wells
Add 2.5 μL of 8% DMSO to C1, C2, C3 wells • b. Put the 384-plate on ice • c. Add 5 μL of P/K mixture to each test Cpd wells and C1, C2 wells • d. Add 5 μL of PP Solution to C3 well • e. Add 2.5 μL of 1,33× kinase buffer to C1 and C3 wells • f. Add 2.5 μL of 4×ATP Solution to each test Cpd wells and C2 well, respectively.
Shake the plate for 30 Sec and centrifuge (1500 rpm, 1 min) • g. Seal the plate to protect from the light and incubate the plate for 1 hour at RT (25-30° C.) 2) Development reaction • a. Add 5 μL of the Development solution to all wells • b. Shake the plate for 30 Sec and centrifuge (1500 rpm, 1 min) • c. Seal the plate to protect from the light and incubate the plate for 1 hour at RT (25-30° C.) 3) Stop and read • a. Add 5 μL of the Stop reagent to all wells • b. Shake the plate for 30 Sec and centrifuge (1500 rpm, 1 min) • c. Measure the value of Coumarin (Ex400 nm, Em445 nm) and fluorescein (Ex400 nm, Em520 nm), respectively. 4. Data analysis
Emission Ratio (ER) Coumarin Emission (445 nm)/Fluorescein Emission (520 nm)
inhibition ratio (IR)=1−% Photest Cpd/% PhoC2%
IC50 Value: determined with add-in software for Microsoft Excel, XLfit™ (version 2.0) from ID Business Solutions (Guildford: UK)

[1] = biological target: T2, Recombinant human KDR (VEGFR-2) (Homo sapiens, UniProt P35968); experiment: Transcreener kinase assay of VEGFR-2 (KDR); type: biochemical; conditions: Poly E4Y substrate
T2 construct: purchased Invitrogen PV3660
Method: Transcreener kinase assay of VEGFR-2 (KDR)
1. Solution preparation • 1) Transcreenen™ KINASE Assy kit: Bellbrook Labs, 3003-10 K; • 2) Recombinant human KDR: Invitrogen, PV3660; • 3) Poly E4Y (substrate): Sigma, P0275; 5 mg/mL, dissolved in MilliQ water; • 4) Assay buffer: 67 mM HEPES, 0.013% Triton X-100, 27 mM MgCl2, 0.67 mM MnCl2 1.25 mM DTT, PH 7.4; • 5) 10 mM ATP: Invitrogen, PV3227; • 6) 500 mM EDTA: Invitrogen, 15575-038; • 7) 96 well black Greiner plate: Greiner, 675076.
2. Prepare solution • 1) Dilute the compound to 5 folds of final concentrations, keeping the DMSO concentration at 5%. The final concentrations are 1, 0.33, 0.11, 0.037, 0.012, 0.004, 0.0014, 0.0005 μM; and the final concentration of DMSO is 1%. • 2) Prepare Enzyme/Substrate stock, Recombinant human KDR and Poly E4Y are both diluted in assay buffer. The final concentration is KDR (0.3 ng/μL), Poly E4Y (62.5 ng/μL). The mixture is keeping on ice surface before use; • 3) Prepare ATP Diluents, 10 mM ATP is diluted in assay buffer, the final concentration is 25 μM; • 4) Prepare ADP Diluents: diluted ADP (500 μM) in assay buffer, the final concentration is 25 μM; • 5) Prepare ATP standard curve stock as following:
3. Enzymatic reaction • 1) Add 5 μL of compound or control. (positive control, 5 μL of 5% DMSO; negative control, 5 μL of 500 mM EDTA); • 2) Add 10 μL of Enzyme/Substrate stock; • 3) Add 10 μL of ATP Diluents to begin the enzyme reaction and mix on plate shaker; • 4) Add 5 μL 5% DMSO, 10 μL of assay buffer and 10 μL of ATP standard curve stock into standard curve wells; • 5) Incubate at 28° C. for 45 min, keeping plate in gently shaking.
4. Stop reaction and detect ADP • 1) Prepare Detection Mix: diluted ADP Alexa633 tracer (1:100), ADP antibody (1:158), and stop & detect buffer (1:10) by MilliQ water; • 2) Prepare Tracer Only control: diluted ADP Alexa633 tracer (1:100) and stop & detect buffer (1:10) by MilliQ water; • 3) Prepare No Tracer control: diluted stop & detect buffer (1:10) by MilliQ water; • 4) Add 25 μL of detection mix, Tracer Only control and No Tracer control into corresponding wells, respectively; • 5) Incubate at 28° C. for 1 h, keeping plate in gently shaking; • 6) Measure florescence polarization (FP) on TECAN F500. Excitation wavelength: 610 nm, Emission wavelength: 670 nm.
Wherein: • 1) Compound well [ADP] represents the ADP concentration of compound well. • 2) Positive control well [ADP] represents the ADP concentration of 5% DMSO well • 3) Conversion of mP value to ADP concentration based on the formula which determined by standard curve.
IC50: calculated using XL-Fit 2.0 software.

T2 sequence (P35968 789-1356 limits assumed): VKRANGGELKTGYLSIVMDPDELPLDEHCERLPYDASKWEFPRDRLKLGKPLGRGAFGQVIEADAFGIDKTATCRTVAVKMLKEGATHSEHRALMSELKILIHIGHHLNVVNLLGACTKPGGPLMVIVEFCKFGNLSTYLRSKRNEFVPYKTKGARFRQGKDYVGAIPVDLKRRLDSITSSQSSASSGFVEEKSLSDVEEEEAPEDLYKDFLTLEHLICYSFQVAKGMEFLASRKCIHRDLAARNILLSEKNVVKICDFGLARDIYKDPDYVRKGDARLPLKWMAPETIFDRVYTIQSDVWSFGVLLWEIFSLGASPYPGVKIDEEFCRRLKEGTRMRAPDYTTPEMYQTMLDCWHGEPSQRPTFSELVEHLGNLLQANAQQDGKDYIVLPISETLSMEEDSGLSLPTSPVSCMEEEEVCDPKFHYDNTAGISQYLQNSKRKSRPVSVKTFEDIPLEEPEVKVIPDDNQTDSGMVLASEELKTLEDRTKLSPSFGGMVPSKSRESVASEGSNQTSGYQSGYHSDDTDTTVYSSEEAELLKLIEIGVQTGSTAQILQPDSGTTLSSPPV

IC50 (Flt3 kinase) | IC50 [1] | SMILES | IC50 (RBL-2H3 cells)
1.6 µM | > 3 µM | COc1ccc(-c2cc3nccnc3c(OC[C@@H]3CN(S(C)(=O)=O)CCO3)n2)cc1OC [Compound 43] | 0.001 to 0.1 µM
– | 1.6 µM | CS(=O)(=O)N1CCN(c2ccc(-c3cc4nccnc4c(OC[C@@H]4CN(S(C)(=O)=O)CCO4)n3)cc2)CC1 [Compound 26] | 0.1 to 1 µM
– | 1.33 µM | CC(=O)N1CCC(c2ccc(-c3cc4nccnc4c(OC[C@@H]4CN(S(C)(=O)=O)CCO4)n3)cc2)CC1 [Compound 33] | 0.001 to 0.1 µM
1.64 µM | 1.56 µM | CS(=O)(=O)N1CCC(c2ccc(-c3cc4nccnc4c(OC[C@@H]4CN(S(C)(=O)=O)CCO4)n3)cc2)CC1 [Compound 57, (S)-4-(methylsulfonyl)-2-((7-(4-(1-(methylsulfonyl)piperidin-4-yl)phenyl)pyrido[4,3,-b]pyrazin-5-yloxy)methyl)morpholine] | 0.001 to 0.1 µM
2.42 µM | > 3 µM | CN(C)c1ccc(-c2cc3nccnc3c(OC[C@@H]3CN(S(C)(=O)=O)CCO3)n2)cc1Cl [Compound 108] | 0.001 to 0.1 µM
– | 2.96 µM | CN(C)c1ccc(-c2cc3nccnc3c(OC[C@@H]3CN(S(C)(=O)=O)CCO3)n2)cc1F [Compound 53] | 0.001 to 0.1 µM

Source: patent US20150307491A1, “SUBSTITUTED PYRIDOPYRAZINES AS SYK INHIBITORS” (HUTCHISON MEDIPHARMA LIMITED, priority 2012, published 2015)
